We go through 6 molecules from ChEMBL document CHEMBL1201862, “PubChem BioAssay data set” (2004).

The source made the active and inactive calls.

The target of assay [1] is T1, Long-chain-fatty-acid--AMP ligase FadD28 (Mycobacterium tuberculosis, UniProt P9WQ59).
T1 sequence (P9WQ59 whole entry): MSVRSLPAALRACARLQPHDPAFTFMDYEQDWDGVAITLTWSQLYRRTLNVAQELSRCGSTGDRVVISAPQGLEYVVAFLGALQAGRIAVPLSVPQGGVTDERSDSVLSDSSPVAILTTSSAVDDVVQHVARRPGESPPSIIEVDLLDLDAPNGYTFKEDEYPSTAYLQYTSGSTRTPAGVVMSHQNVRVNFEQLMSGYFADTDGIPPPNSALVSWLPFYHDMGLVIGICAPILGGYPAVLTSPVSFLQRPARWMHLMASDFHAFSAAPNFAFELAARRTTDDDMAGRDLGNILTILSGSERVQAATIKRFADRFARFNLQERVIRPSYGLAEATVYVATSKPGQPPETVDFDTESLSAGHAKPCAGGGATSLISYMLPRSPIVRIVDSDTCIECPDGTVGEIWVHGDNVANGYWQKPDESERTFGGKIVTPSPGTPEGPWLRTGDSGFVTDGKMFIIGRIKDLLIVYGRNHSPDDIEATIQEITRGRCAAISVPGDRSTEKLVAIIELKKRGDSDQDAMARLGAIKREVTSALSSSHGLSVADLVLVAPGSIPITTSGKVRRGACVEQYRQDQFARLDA
The assay can be described thus: Fluorescence polarization aasay to screen for inhibitors that compete for the binding of FadD28 to a bisubstrate Measured in Biochemical System Using Plate Reader - 2147-01_Inhibitor_Dose_CherryPick_Activity. The assay is classed as functional, Mycobacterium tuberculosis H37Rv.

For assay [2], the target named is Dual specificity tyrosine-phosphorylation-regulated kinase 1A (Rattus norvegicus, UniProt Q63470). The format is biochemical, Homo sapiens.
Assay [3] in a line: Luminescence Cell-Based Dose Confirmation HTS to Identify Activators of 5'UTR Stem-Loop Driven Alpha-Synuclein mRNA Translation in H4 Neuroglioblastoma Cells. [Related pubchem assays: 1829 (Project Summary), 1814 (Primary HTS)]. The assay is classed as functional.
The target of assay [4] is T2, Streptokinase A (Streptococcus pyogenes serotype M1, UniProt P10520).
T2 sequence (P10520 whole entry): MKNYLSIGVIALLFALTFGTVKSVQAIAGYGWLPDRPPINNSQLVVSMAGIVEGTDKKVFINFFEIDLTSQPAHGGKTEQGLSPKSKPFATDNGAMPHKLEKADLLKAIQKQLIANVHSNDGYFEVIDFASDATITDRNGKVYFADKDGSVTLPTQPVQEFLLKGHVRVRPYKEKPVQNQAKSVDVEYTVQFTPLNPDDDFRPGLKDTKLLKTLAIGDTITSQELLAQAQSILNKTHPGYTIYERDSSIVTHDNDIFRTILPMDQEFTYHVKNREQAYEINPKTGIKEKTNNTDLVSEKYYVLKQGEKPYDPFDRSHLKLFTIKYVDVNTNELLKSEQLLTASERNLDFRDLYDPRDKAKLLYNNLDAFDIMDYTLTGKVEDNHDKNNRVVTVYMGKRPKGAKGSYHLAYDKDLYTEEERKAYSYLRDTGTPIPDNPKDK
The assay can be described thus: S. pyogenes streptokinase expression inhibitors, potency, dose response, plasminogen activation absorbance, OD405 (AID 1914).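 Note: secreted streptokinase activity via plasminogen activation per viability signal from cell pellet.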 The format is functional, Streptococcus pyogenes M1 GAS.

Assay [5] relates to Streptococcus. Nature of the assay: Group A Streptococcus viability loss, dose response, counter-screen for streptokinase expression inhibitor project, luminescence, BacTiterGlo (AID 1915).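 Note: potency for reduction of bacterial viability or growth.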 The format is functional, organism-based.
Assay [6] can be described thus: Luminescence Cell-Based Dose Response to Identify Activators of 5'UTR Stem-Loop Driven Prion Protein mRNA Translation in H4-C Neuroglioblastoma Cells. [Related pubchem assays: 1829 (Project Summary), 1814 (Primary HTS)]. The assay is classed as functional.
The nature of assay [7]: Luminescence Cell-Based Dose Confirmation to Identify Activators of 5'UTR Stem-Loop Driven Alpha-Synuclein mRNA Translation in H4 Neuroglioblastoma Cells. [Related pubchem assays: 1829 (Project Summary), 1814 (Primary HTS)]. The format is functional.
The subject of assay [8] is HeLa. The assay can be described thus: HeLa cell cytotoxicity, dose response, cytotoxicity control for MITF activator project, CellTiter-Glo luminescence, cherry-pick samples (AID 540259). The format is functional, cell-based. As to conditions: Homo sapiens.
Assay [9] concerns the target Beta-2 adrenergic receptor (Homo sapiens, UniProt P07550). Nature of the assay: beta2AR agonists driving receptor internalization, dose response, cell-based, FAP fluorogen, flow cytometry, cherry pick 1 (AID 588763). The assay is classed as functional.
The nature of assay [10]: Luminescence Cell-Based Dose Response HTS to Identify Activators of Luciferase Translation or Activity in H4 […] Cells. [Related pubchem assays: 1829 (Project Summary), 1814 (Primary HTS)]. The format is functional.
In assay [11] the test system is Streptococcus sp. 'group A'. Nature of the assay: growth inhibition of control SK(-) GAS strain, dose response, counter-screen for streptokinase expression inhibitor project, luminescence, kanamycin, BacTiterGlo, confirmation (AID 1900). The assay is classed as functional, organism-based.
In assay [12] the test system is H4. The assay can be described thus: Luminescence Cell-Based Dose Response HTS to Identify Activators of 5'UTR Stem-Loop Driven Prion Protein mRNA Translation in H4 Neuroglioblastoma Cells. [Related pubchem assays: 1829 (Project Summary), 1814 (Primary HTS)]. Conditions: Homo sapiens. The assay is classed as functional.
Assay [13] can be described thus: Luminescence Cell-Based Dose Response to Identify Activators of Luciferase Translation or Activity in H4-C Neuroglioblastoma Cells. [Related pubchem assays: 1829 (Project Summary), 1814 (Primary HTS)]. The assay is classed as functional.
The target of assay [14] is T3, Caspase-3 (Homo sapiens, UniProt P42574).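 Note: Dose-response selectivity test against caspase-3 for candidate inhibitors of sentrin-specific proteases (SENPs).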
T3 sequence (P42574 whole entry): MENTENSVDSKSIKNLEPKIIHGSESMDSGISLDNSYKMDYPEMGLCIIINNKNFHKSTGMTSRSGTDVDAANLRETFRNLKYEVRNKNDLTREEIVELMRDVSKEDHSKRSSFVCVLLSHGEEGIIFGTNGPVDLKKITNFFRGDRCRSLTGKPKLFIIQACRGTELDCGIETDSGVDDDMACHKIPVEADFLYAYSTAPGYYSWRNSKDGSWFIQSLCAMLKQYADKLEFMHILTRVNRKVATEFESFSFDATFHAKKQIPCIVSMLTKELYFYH
The format is functional.

Assay [15] addresses T4, Sentrin-specific protease 8 (Homo sapiens, UniProt Q96LD8).
T4 sequence (Q96LD8 whole entry): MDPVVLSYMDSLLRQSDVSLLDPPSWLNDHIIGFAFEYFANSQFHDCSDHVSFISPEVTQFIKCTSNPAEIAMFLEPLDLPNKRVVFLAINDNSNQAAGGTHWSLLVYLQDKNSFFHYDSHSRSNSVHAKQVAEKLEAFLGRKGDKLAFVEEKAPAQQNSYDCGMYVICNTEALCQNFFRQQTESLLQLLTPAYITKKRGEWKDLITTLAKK
The format is functional.

Assay [16] has as its target T5, Sentrin-specific protease 6 (Homo sapiens, UniProt Q9GZR1).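 Note: Luminescence-based dose-response confirmatory assay of SENP6 inhibition, following up an ultra-high-throughput screen.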
T5 sequence (Q9GZR1 whole entry): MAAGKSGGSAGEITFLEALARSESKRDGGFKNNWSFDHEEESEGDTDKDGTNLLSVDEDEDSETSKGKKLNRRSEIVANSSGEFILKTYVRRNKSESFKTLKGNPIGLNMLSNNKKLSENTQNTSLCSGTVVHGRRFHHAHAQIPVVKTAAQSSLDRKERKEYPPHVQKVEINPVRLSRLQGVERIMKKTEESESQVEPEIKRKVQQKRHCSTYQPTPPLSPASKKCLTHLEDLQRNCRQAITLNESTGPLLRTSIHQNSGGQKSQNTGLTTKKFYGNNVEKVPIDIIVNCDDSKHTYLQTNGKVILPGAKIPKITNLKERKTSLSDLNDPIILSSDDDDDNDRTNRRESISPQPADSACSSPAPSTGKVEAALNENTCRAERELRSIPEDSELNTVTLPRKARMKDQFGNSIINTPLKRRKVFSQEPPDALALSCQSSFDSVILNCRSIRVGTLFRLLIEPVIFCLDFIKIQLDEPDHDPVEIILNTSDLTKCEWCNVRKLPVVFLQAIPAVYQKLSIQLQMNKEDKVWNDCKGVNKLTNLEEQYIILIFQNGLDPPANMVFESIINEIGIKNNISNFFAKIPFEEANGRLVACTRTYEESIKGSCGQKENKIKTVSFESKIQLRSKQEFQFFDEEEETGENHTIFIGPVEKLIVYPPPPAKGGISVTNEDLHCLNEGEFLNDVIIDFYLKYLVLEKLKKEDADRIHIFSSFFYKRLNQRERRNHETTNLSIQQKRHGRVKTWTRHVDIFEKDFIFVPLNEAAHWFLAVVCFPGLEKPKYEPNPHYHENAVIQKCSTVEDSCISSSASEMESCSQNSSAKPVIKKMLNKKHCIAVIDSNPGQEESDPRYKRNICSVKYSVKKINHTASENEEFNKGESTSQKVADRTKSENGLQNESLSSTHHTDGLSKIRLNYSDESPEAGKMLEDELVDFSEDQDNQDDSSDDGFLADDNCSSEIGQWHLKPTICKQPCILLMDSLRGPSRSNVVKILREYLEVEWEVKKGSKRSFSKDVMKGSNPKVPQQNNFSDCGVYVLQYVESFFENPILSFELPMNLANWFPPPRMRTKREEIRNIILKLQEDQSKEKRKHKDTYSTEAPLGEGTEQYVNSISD
The assay is classed as functional.

Assay [17] addresses T6, Sentrin-specific protease 7 (Homo sapiens, UniProt Q9BQF6).
T6 sequence (Q9BQF6 whole entry): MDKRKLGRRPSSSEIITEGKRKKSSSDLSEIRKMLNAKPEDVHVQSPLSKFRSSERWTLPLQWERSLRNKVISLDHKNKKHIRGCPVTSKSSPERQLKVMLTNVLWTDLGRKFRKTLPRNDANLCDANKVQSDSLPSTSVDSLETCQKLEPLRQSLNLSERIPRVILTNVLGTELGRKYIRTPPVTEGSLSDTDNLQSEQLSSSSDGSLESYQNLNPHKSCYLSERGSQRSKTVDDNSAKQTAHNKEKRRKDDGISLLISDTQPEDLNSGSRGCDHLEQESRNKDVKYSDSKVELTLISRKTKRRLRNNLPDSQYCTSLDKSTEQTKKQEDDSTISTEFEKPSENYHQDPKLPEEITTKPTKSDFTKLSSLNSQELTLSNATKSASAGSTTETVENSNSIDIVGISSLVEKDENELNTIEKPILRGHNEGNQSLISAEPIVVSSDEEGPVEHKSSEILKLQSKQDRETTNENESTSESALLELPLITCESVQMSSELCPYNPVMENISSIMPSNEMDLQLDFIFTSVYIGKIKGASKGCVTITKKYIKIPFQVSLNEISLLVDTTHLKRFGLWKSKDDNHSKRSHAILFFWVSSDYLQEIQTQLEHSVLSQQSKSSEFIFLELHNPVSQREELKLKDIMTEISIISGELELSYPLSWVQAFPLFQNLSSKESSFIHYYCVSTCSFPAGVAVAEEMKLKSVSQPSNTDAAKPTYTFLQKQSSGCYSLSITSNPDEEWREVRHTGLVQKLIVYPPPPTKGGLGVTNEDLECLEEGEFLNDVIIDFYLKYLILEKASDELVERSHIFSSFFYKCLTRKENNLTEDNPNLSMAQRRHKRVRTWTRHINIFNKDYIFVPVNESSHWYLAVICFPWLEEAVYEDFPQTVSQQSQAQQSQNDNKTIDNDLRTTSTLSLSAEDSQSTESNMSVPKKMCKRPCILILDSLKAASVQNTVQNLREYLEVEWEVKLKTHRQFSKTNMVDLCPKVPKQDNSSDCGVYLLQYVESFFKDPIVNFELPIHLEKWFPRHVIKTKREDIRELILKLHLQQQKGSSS
The format is functional.

Assay [18] in a line: Luminescence Cell-Based Dose Retest to Confirm Inhibitors of Cancer Stem Cells. [Related pubchem assays (depositor defined):AID2717, AID2721]. The assay is classed as functional. Conditions: Homo sapiens.

Beta-2 adrenergic receptor, sequence (P07550 whole entry): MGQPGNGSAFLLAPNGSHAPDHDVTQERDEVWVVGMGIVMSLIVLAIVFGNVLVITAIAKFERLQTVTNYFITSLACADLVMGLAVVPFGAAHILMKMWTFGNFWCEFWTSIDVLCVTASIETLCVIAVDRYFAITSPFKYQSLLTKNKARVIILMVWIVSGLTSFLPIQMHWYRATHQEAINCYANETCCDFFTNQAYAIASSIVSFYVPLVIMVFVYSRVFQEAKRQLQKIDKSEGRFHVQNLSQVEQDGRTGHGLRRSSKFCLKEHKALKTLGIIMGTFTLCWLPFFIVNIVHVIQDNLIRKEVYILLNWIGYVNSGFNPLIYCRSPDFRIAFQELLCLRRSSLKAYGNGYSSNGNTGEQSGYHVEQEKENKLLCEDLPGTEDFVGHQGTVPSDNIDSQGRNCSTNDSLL

For `Oc1ccc(/C=N/n2c(S)nnc2C2CCCCC2)c(O)c1`, the half-maximal activity concentration (AC50) in assay [1] is 48.8 µM (active); in assay [2], 0.93 µM (active).
In the case of `Cc1cccc2nc(COc3ccc4ccccc4c3Br)cn12`, the concentration for a half-maximal effect (EC50) in [3] is 0.167 µM (active); in assay [4] it was > 150 µM (not active); in assay [5], > 150 µM (not active); in assay [6], 0.638 µM (active); in assay [7], 0.34 µM (active); in [9], 3.71 µM (active). Also, the 50% effective concentration (EC50) was < 0.1 µM (inconclusive) in assay [10], 12.7 µM (active) in assay [11], > 120 µM (not active) in assay [12] and 0.561 µM (active) in assay [13]. In addition, the AC50 in [8] is 73 µM (active).
In the case of `O=C(N/N=C/c1cccc(Oc2ccccc2)c1)c1cccc(O)c1`, the IC50 in assay [14] was 31.2 µM (active); in assay [15] it was 24 µM (active); in assay [16] it was 25.7 µM (active); in [17], 10.7 µM (active).
`CCCc1ccc(OCc2nc(-c3ccc(NC(=O)c4ccco4)cc3)no2)cc1`: the 50% effective concentration (EC50) in assay [9] was 0.161 µM (active).
For `COc1ccc(/C=N/Nc2nncc3ccccc23)c(OC)c1`, the half-inhibitory concentration (IC50) in assay [14] was 7.23 µM (active); in assay [15], 44.8 µM (active); in assay [16], 11.1 µM (active); in assay [17] it was 3.46 µM (active).
On to `Cc1ccc(C(=O)Nc2nc(C)c(C(=O)Nc3ccc4c(c3)CCC4)s2)cc1`, for which the IC50 in [14] was 19.8 µM (active); in [15], > 100 µM (inactive); in assay [16], > 100 µM (inactive); in [17], 8.21 µM (active). In assay [18], the half-maximal activity concentration (AC50) was 0.458 µM (active).
